According to patent US4068070A, “α-Cyanoamine compounds and a process for producing the same” (Fuji Chemical Industry Co., Ltd., priority 1974, dated 1978):

Experiments:
Format in all cases: in vivo, mongrel adult dogs
[1] = test system: heart rate; assay: Effects on heart rate
Experimental: (§1) All experiments were made on male and female thoractomized mongrel adult dogs weighing about 10 kg. under anesthesia with pentobarbital sodium. Compounds A, D, E and F were suspended in 0.2% CMC solution, Compound B dissolved in hydrochloric acid solution (pH 6), and Compound C and active placebo being dissolved in physiological saline solution. Animals were administered the drug intravenously on brachiuma with either test compound or active placebo.
(§2) Arterial blood pressure was measured by pressure transducer (Nippon Koden MPU-0.5) connected with the cannula inserted from exposed carotid artery into aorta. Aortic blood flow was determined by means of electromagnetic flow meter (Nippon Koden MF-5) mounted at the origin of the aorta. Coronary sinus out flow and coronary sinus oxygen tension were assessed by means of electromagnetic flow meter (Nippon Koden MF-5) and P02 macro electrode (Beokmann Moder 160-C), respectively using Morawitz cannulization technique. Heart rate was measured by cardiotachometer (Nippon Koden RT-2) synchronized with systolic blood pressure of aorta.

[2] = test system: aortic blood flow; assay: Effects on aortic blood flow
Experimental: as §1, §2

[3] = test system: coronary sinus out flow; assay: Effects on coronary sinus out flow
Experimental: as §1, §2

[4] = test system: arterial mean blood pressure; assay: Effects on arterial mean blood pressure
Experimental: as §1, §2

[5] = test system: coronary sinus oxygen tension; assay: Effects on coronary sinus oxygen tension
Experimental: as §1, §2

## CCOC(=O)CN1CCN(C(C#N)c2ccc(OC)c(OC)c2)CC1 (centres unmarked) [Compound B]
[1]; 0.2 mg/kg i.v., 1 min
  Changes(%) of basal values, heart rate: -0.9%
[1]; 0.2 mg/kg i.v., 5 min
  Changes(%) of basal values, heart rate: 0%
[1]; 0.2 mg/kg i.v., 10 min
  Changes(%) of basal values, heart rate: 0%
[1]; 0.2 mg/kg i.v., 20 min
  Changes(%) of basal values, heart rate: 0%
[1]; 0.2 mg/kg i.v., 30 min
  Changes(%) of basal values, heart rate: 0%
[1]; 0.2 mg/kg i.v., 40 min
  Changes(%) of basal values, heart rate: 0%
[1]; 0.2 mg/kg i.v., imm.
  Changes(%) of basal values, heart rate: -2.4%
[1]; 0.6 mg/kg i.v., 1 min
  Changes(%) of basal values, heart rate: +0.6%
[1]; 0.6 mg/kg i.v., 5 min
  Changes(%) of basal values, heart rate: -0.8%
[1]; 0.6 mg/kg i.v., 10 min
  Changes(%) of basal values, heart rate: -0.2%
[1]; 0.6 mg/kg i.v., 20 min
  Changes(%) of basal values, heart rate: 0%
[1]; 0.6 mg/kg i.v., 30 min
  Changes(%) of basal values, heart rate: -0.5%
[1]; 0.6 mg/kg i.v., 40 min
  Changes(%) of basal values, heart rate: 0%
[1]; 0.6 mg/kg i.v., imm.
  Changes(%) of basal values, heart rate: -13.1%
[1]; 2.0 mg/kg i.v., 1 min
  Changes(%) of basal values, heart rate: -2.4%
[1]; 2.0 mg/kg i.v., 5 min
  Changes(%) of basal values, heart rate: -1.5%
[1]; 2.0 mg/kg i.v., 10 min
  Changes(%) of basal values, heart rate: -0.7%
[1]; 2.0 mg/kg i.v., 20 min
  Changes(%) of basal values, heart rate: 0%
[1]; 2.0 mg/kg i.v., 30 min
  Changes(%) of basal values, heart rate: 0%
[1]; 2.0 mg/kg i.v., 40 min
  Changes(%) of basal values, heart rate: 0%
[1]; 2.0 mg/kg i.v., imm.
  Changes(%) of basal values, heart rate: -25.3%
[1]; i.v., anesthetized dogs
  Effects on heart rate (in words): a slight negative chronotropic effect
[2]; 0.2 mg/kg i.v., 1 min
  Changes (%) of basal values, aortic blood flow: +1.2%
[2]; 0.2 mg/kg i.v., 5 min
  Changes (%) of basal values, aortic blood flow: +0.3%
[2]; 0.2 mg/kg i.v., 10 min
  Changes (%) of basal values, aortic blood flow: -0.1%
[2]; 0.2 mg/kg i.v., 20 min
  Changes (%) of basal values, aortic blood flow: 0%
[2]; 0.2 mg/kg i.v., 30 min
  Changes (%) of basal values, aortic blood flow: 0%
[2]; 0.2 mg/kg i.v., 40 min
  Changes (%) of basal values, aortic blood flow: 0%
[2]; 0.2 mg/kg i.v., imm.
  Changes (%) of basal values, aortic blood flow: +2.5%
[2]; 0.6 mg/kg i.v., 1 min
  Changes (%) of basal values, aortic blood flow: +1.6%
[2]; 0.6 mg/kg i.v., 5 min
  Changes (%) of basal values, aortic blood flow: +2.3%
[2]; 0.6 mg/kg i.v., 10 min
  Changes (%) of basal values, aortic blood flow: 0%
[2]; 0.6 mg/kg i.v., 20 min
  Changes (%) of basal values, aortic blood flow: -1.1%
[2]; 0.6 mg/kg i.v., 30 min
  Changes (%) of basal values, aortic blood flow: -0.7%
[2]; 0.6 mg/kg i.v., 40 min
  Changes (%) of basal values, aortic blood flow: 0%
[2]; 0.6 mg/kg i.v., imm.
  Changes (%) of basal values, aortic blood flow: +4.8%
[2]; 2.0 mg/kg i.v., 1 min
  Changes (%) of basal values, aortic blood flow: +4.3%
[2]; 2.0 mg/kg i.v., 5 min
  Changes (%) of basal values, aortic blood flow: -1.2%
[2]; 2.0 mg/kg i.v., 10 min
  Changes (%) of basal values, aortic blood flow: -2.1%
[2]; 2.0 mg/kg i.v., 20 min
  Changes (%) of basal values, aortic blood flow: -1.8%
[2]; 2.0 mg/kg i.v., 30 min
  Changes (%) of basal values, aortic blood flow: 0%
[2]; 2.0 mg/kg i.v., 40 min
  Changes (%) of basal values, aortic blood flow: 0%
[2]; 2.0 mg/kg i.v., imm.
  Changes (%) of basal values, aortic blood flow: +6.2%
[2]; i.v., anesthetized dogs
  Effects on aortic blood flow (in words): an increase in blood flow immediately after administration, followed by a decrease in blood flow
[3]; 0.2 mg/kg i.v., 1 min
  Changes(%) of basal values, coronary sinus out flow: +4.9%
[3]; 0.2 mg/kg i.v., 5 min
  Changes(%) of basal values, coronary sinus out flow: +0.7%
[3]; 0.2 mg/kg i.v., 10 min
  Changes(%) of basal values, coronary sinus out flow: 0%
[3]; 0.2 mg/kg i.v., 20 min
  Changes(%) of basal values, coronary sinus out flow: -0.3%
[3]; 0.2 mg/kg i.v., 30 min
  Changes(%) of basal values, coronary sinus out flow: 0%
[3]; 0.2 mg/kg i.v., 40 min
  Changes(%) of basal values, coronary sinus out flow: 0%
[3]; 0.2 mg/kg i.v., imm.
  Changes(%) of basal values, coronary sinus out flow: +18.0%
[3]; 0.6 mg/kg i.v., 1 min
  Changes(%) of basal values, coronary sinus out flow: +30.7%
[3]; 0.6 mg/kg i.v., 5 min
  Changes(%) of basal values, coronary sinus out flow: +0.9%
[3]; 0.6 mg/kg i.v., 10 min
  Changes(%) of basal values, coronary sinus out flow: -0.7%
[3]; 0.6 mg/kg i.v., 20 min
  Changes(%) of basal values, coronary sinus out flow: -0.2%
[3]; 0.6 mg/kg i.v., 30 min
  Changes(%) of basal values, coronary sinus out flow: 0%
[3]; 0.6 mg/kg i.v., 40 min
  Changes(%) of basal values, coronary sinus out flow: 0%
[3]; 0.6 mg/kg i.v., imm.
  Changes(%) of basal values, coronary sinus out flow: +39.5%
[3]; 2.0 mg/kg i.v., 1 min
  Changes(%) of basal values, coronary sinus out flow: +47.4%
[3]; 2.0 mg/kg i.v., 5 min
  Changes(%) of basal values, coronary sinus out flow: +8.2%
[3]; 2.0 mg/kg i.v., 10 min
  Changes(%) of basal values, coronary sinus out flow: +5.9%
[3]; 2.0 mg/kg i.v., 20 min
  Changes(%) of basal values, coronary sinus out flow: +3.2%
[3]; 2.0 mg/kg i.v., 30 min
  Changes(%) of basal values, coronary sinus out flow: +1.5%
[3]; 2.0 mg/kg i.v., 40 min
  Changes(%) of basal values, coronary sinus out flow: 0%
[3]; 2.0 mg/kg i.v., imm.
  Changes(%) of basal values, coronary sinus out flow: +55.1%
[3]; i.v., anesthetized dogs
  Effects on coronary sinus out flow (in words): a marked increasing effect on coronary sinus out flow, which was proportioned to doses thereof and of long duration
[4]; 0.2 mg/kg i.v., 1 min
  Changes (%) of basal values, arterial mean blood pressure: +4.8%
[4]; 0.2 mg/kg i.v., 5 min
  Changes (%) of basal values, arterial mean blood pressure: +0.4%
[4]; 0.2 mg/kg i.v., 10 min
  Changes (%) of basal values, arterial mean blood pressure: +0.1%
[4]; 0.2 mg/kg i.v., 20 min
  Changes (%) of basal values, arterial mean blood pressure: -0.1%
[4]; 0.2 mg/kg i.v., 30 min
  Changes (%) of basal values, arterial mean blood pressure: 0%
[4]; 0.2 mg/kg i.v., 40 min
  Changes (%) of basal values, arterial mean blood pressure: 0%
[4]; 0.2 mg/kg i.v., imm.
  Changes (%) of basal values, arterial mean blood pressure: -5.0%
[4]; 0.6 mg/kg i.v., 1 min
  Changes (%) of basal values, arterial mean blood pressure: +6.2%
[4]; 0.6 mg/kg i.v., 5 min
  Changes (%) of basal values, arterial mean blood pressure: +0.1%
[4]; 0.6 mg/kg i.v., 10 min
  Changes (%) of basal values, arterial mean blood pressure: -0.3%
[4]; 0.6 mg/kg i.v., 20 min
  Changes (%) of basal values, arterial mean blood pressure: 0%
[4]; 0.6 mg/kg i.v., 30 min
  Changes (%) of basal values, arterial mean blood pressure: 0%
[4]; 0.6 mg/kg i.v., 40 min
  Changes (%) of basal values, arterial mean blood pressure: 0%
[4]; 0.6 mg/kg i.v., imm.
  Changes (%) of basal values, arterial mean blood pressure: -14.4%
[4]; 3.0 mg/kg i.v., 1 min
  Changes (%) of basal values, arterial mean blood pressure: +7.0%
[4]; 3.0 mg/kg i.v., 5 min
  Changes (%) of basal values, arterial mean blood pressure: +2.5%
[4]; 3.0 mg/kg i.v., 10 min
  Changes (%) of basal values, arterial mean blood pressure: +0.4%
[4]; 3.0 mg/kg i.v., 20 min
  Changes (%) of basal values, arterial mean blood pressure: -1.0%
[4]; 3.0 mg/kg i.v., 30 min
  Changes (%) of basal values, arterial mean blood pressure: -0.5%
[4]; 3.0 mg/kg i.v., 40 min
  Changes (%) of basal values, arterial mean blood pressure: 0%
[4]; 3.0 mg/kg i.v., imm.
  Changes (%) of basal values, arterial mean blood pressure: -16.2%
[4]; i.v., anesthetized dogs
  Effects on arterial mean blood pressure (in words): transitory hypotensive effect immediately after administration, and thereafter increased blood pressure which was then, from 10 minutes after medication, returned to the level before treatment
[5]; 0.2 mg/kg i.v., 1 min
  Changes(%) of basal values, coronary sinus oxygen tension: +11.3%
[5]; 0.2 mg/kg i.v., 5 min
  Changes(%) of basal values, coronary sinus oxygen tension: +1.0%
[5]; 0.2 mg/kg i.v., 10 min
  Changes(%) of basal values, coronary sinus oxygen tension: -2.0%
[5]; 0.2 mg/kg i.v., 20 min
  Changes(%) of basal values, coronary sinus oxygen tension: -0.5%
[5]; 0.2 mg/kg i.v., 30 min
  Changes(%) of basal values, coronary sinus oxygen tension: 0%
[5]; 0.2 mg/kg i.v., 40 min
  Changes(%) of basal values, coronary sinus oxygen tension: 0%
[5]; 0.2 mg/kg i.v., imm.
  Changes(%) of basal values, coronary sinus oxygen tension: +25.5%
[5]; 0.6 mg/kg i.v., 1 min
  Changes(%) of basal values, coronary sinus oxygen tension: +46.4%
[5]; 0.6 mg/kg i.v., 5 min
  Changes(%) of basal values, coronary sinus oxygen tension: +8.9%
[5]; 0.6 mg/kg i.v., 10 min
  Changes(%) of basal values, coronary sinus oxygen tension: -3.2%
[5]; 0.6 mg/kg i.v., 20 min
  Changes(%) of basal values, coronary sinus oxygen tension: -0.9%
[5]; 0.6 mg/kg i.v., 30 min
  Changes(%) of basal values, coronary sinus oxygen tension: 0%
[5]; 0.6 mg/kg i.v., 40 min
  Changes(%) of basal values, coronary sinus oxygen tension: 0%
[5]; 0.6 mg/kg i.v., imm.
  Changes(%) of basal values, coronary sinus oxygen tension: +68.4%
[5]; 2.0 mg/kg i.v., 1 min
  Changes(%) of basal values, coronary sinus oxygen tension: +70.9%
[5]; 2.0 mg/kg i.v., 5 min
  Changes(%) of basal values, coronary sinus oxygen tension: +26.7%
[5]; 2.0 mg/kg i.v., 10 min
  Changes(%) of basal values, coronary sinus oxygen tension: +8.0%
[5]; 2.0 mg/kg i.v., 20 min
  Changes(%) of basal values, coronary sinus oxygen tension: +3.0%
[5]; 2.0 mg/kg i.v., 30 min
  Changes(%) of basal values, coronary sinus oxygen tension: +0.8%
[5]; 2.0 mg/kg i.v., 40 min
  Changes(%) of basal values, coronary sinus oxygen tension: 0%
[5]; 2.0 mg/kg i.v., imm.
  Changes(%) of basal values, coronary sinus oxygen tension: +80.7%
[5]; i.v., anesthetized dogs
  Effects on coronary sinus oxygen tension (in words): a significant increase in coronary sinus oxygen tension, effect of which was of long duration
